Experimental data taken from ChEMBL document CHEMBL2157896, “Engineering pH-gated transitions for selective and efficient double-strand DNA photocleavage in hypoxic tumors” (J Med Chem, 2011).
Activity calls are given as the source filed them. The rule behind the calls is not given here.

How the values were obtained:
[1] = tested on: Nucleic Acid; test: Induction of photochemical DNA cleavage in Escherichia coli pBR322 assessed as disappearance of supercoiled DNA at 15 uM in pH 7.0 phosphate buffer after 10 mins of UV irradiation; format: nucleic-acid assay
[2] = tested on: Nucleic Acid; test: Induction of photochemical DNA cleavage in Escherichia coli pBR322 assessed as form I level at 15 uM in pH 8.0 phosphate buffer measured after 1 min of UV irradiation; format: nucleic-acid assay
[3] = tested on: Nucleic Acid; test: Induction of photochemical DNA cleavage in Escherichia coli pBR322 assessed as form I level at 15 uM in pH 7.0 phosphate buffer measured after 4 mins of UV irradiation; format: nucleic-acid assay
[4] = tested on: Nucleic Acid; test: Induction of photochemical DNA cleavage in Escherichia coli pBR322 assessed as form 3 level at 15 uM in pH 8.0 phosphate buffer measured after 6 mins of UV irradiation; format: nucleic-acid assay
[5] = tested on: Nucleic Acid; test: Induction of photochemical DNA cleavage in Escherichia coli pBR322 assessed as supercoiled DNA level at 15 uM in pH 6.0 phosphate buffer measured after 2 mins of UV irradiation; format: nucleic-acid assay
[6] = tested on: Nucleic Acid; test: Induction of photochemical DNA cleavage in Escherichia coli pBR322 assessed as form 2 level at 15 uM in pH 7.0 phosphate buffer measured after 2 mins of UV irradiation; format: nucleic-acid assay
[7] = tested on: Nucleic Acid; test: Induction of photochemical DNA cleavage in Escherichia coli pBR322 assessed as form 2 level at 15 uM in pH 8.0 phosphate buffer measured after 2 mins of UV irradiation; format: nucleic-acid assay
[8] = tested on: Nucleic Acid; test: Induction of photochemical DNA cleavage in Escherichia coli pBR322 assessed as form 2 level at 15 uM in pH 8.0 phosphate buffer measured after 8 mins of UV irradiation; format: nucleic-acid assay
[9] = tested on: Nucleic Acid; test: Induction of photochemical DNA cleavage in Escherichia coli pBR322 assessed as form I level at 15 uM in pH 8.0 phosphate buffer measured after 10 mins of UV irradiation; format: nucleic-acid assay
[10] = tested on: Nucleic Acid; test: Induction of photochemical DNA cleavage in Escherichia coli pBR322 assessed as form I level at 15 uM in pH 8.0 phosphate buffer measured after 4 mins of UV irradiation; format: nucleic-acid assay
[11] = tested on: Nucleic Acid; test: Induction of photochemical DNA cleavage in Escherichia coli pBR322 assessed as form 2 level at 15 uM in pH 6.0 phosphate buffer measured after 4 mins of UV irradiation; format: nucleic-acid assay
[12] = tested on: Nucleic Acid; test: Induction of photochemical DNA cleavage in Escherichia coli pBR322 assessed as form 3 level at 15 uM in pH 6.0 phosphate buffer measured after 1 min of UV irradiation; format: nucleic-acid assay
[13] = tested on: Nucleic Acid; test: Induction of photochemical DNA cleavage in Escherichia coli pBR322 assessed as disappearance of supercoiled DNA at 15 uM in pH 6.0 phosphate buffer after 10 mins of UV irradiation; format: nucleic-acid assay
[14] = tested on: Nucleic Acid; test: Induction of photochemical DNA cleavage in Escherichia coli pBR322 assessed as form I level at 15 uM in pH 7.0 phosphate buffer measured after 10 mins of UV irradiation; format: nucleic-acid assay
[15] = tested on: Nucleic Acid; test: Induction of photochemical DNA cleavage in Escherichia coli pBR322 assessed as form 2 level at 15 uM in pH 7.0 phosphate buffer measured after 4 mins of UV irradiation; format: nucleic-acid assay
[16] = tested on: Nucleic Acid; test: Induction of photochemical DNA cleavage in Escherichia coli pBR322 assessed as form 3 level at 15 uM in pH 7.0 phosphate buffer measured after 6 mins of UV irradiation; format: nucleic-acid assay
[17] = tested on: Nucleic Acid; test: Induction of photochemical DNA cleavage in Escherichia coli pBR322 assessed as form I level at 15 uM in pH 8.0 phosphate buffer measured after 2 mins of UV irradiation; format: nucleic-acid assay
[18] = tested on: Nucleic Acid; test: Induction of photochemical DNA cleavage in Escherichia coli pBR322 assessed as form I level at 15 uM in pH 8.0 phosphate buffer measured after 6 mins of UV irradiation; format: nucleic-acid assay
[19] = tested on: Nucleic Acid; test: Induction of photochemical DNA cleavage in Escherichia coli pBR322 assessed as form I level at 15 uM in pH 6.0 phosphate buffer measured after 1 min of UV irradiation; format: nucleic-acid assay
[20] = tested on: Nucleic Acid; test: Induction of photochemical DNA cleavage in Escherichia coli pBR322 assessed as form 2 level at 15 uM in pH 7.0 phosphate buffer measured after 0.5 mins of UV irradiation; format: nucleic-acid assay
[21] = tested on: Nucleic Acid; test: Induction of photochemical DNA cleavage in Escherichia coli pBR322 assessed as form 2 level at 15 uM in pH 6.0 phosphate buffer measured after 8 mins of UV irradiation; format: nucleic-acid assay
[22] = tested on: Nucleic Acid; test: Induction of DNA damage in human […] cells at 30 uM incubated for 3 hrs using cells exposed to UV irradiation for 4 to 24 hrs by single cell gel electrophoresis; format: cell-based; details: TDE = time-dependent effect
[23] = tested on: Nucleic Acid; test: Induction of photochemical DNA cleavage in Escherichia coli pBR322 assessed as form 2 level at 15 uM in pH 6.0 phosphate buffer measured after 1 min of UV irradiation; format: nucleic-acid assay
[24] = tested on: A-375; test: Toxicity in human A375 cells at <10 uM under dark condition incubated for 72 hrs by MTT assay; format: cell-based; details: a-375, 72 h
[25] = tested on: Nucleic Acid; test: Induction of photochemical DNA cleavage in Escherichia coli pBR322 assessed as form 3 level at 15 uM in pH 8.0 phosphate buffer measured after 2 mins of UV irradiation; format: nucleic-acid assay
[26] = tested on: Nucleic Acid; test: Induction of photochemical DNA cleavage in Escherichia coli pBR322 assessed as form 3 level at 15 uM in pH 6.0 phosphate buffer measured after 10 mins of UV irradiation; format: nucleic-acid assay
[27] = tested on: Nucleic Acid; test: Induction of photochemical DNA cleavage in Escherichia coli pBR322 assessed as form I level at 15 uM in pH 8.0 phosphate buffer measured after 8 mins of UV irradiation; format: nucleic-acid assay
[28] = tested on: Nucleic Acid; test: Induction of photochemical DNA cleavage in Escherichia coli pBR322 assessed as form I level at 15 uM in pH 8.0 phosphate buffer measured after 0.5 mins of UV irradiation; format: nucleic-acid assay
[29] = tested on: Nucleic Acid; test: Induction of DNA cleavage in Escherichia coli pBR322 at 15 uM in pH 6.0 phosphate buffer measured after of UV irradiation; format: nucleic-acid assay
[30] = tested on: Nucleic Acid; test: Induction of photochemical DNA cleavage in Escherichia coli pBR322 assessed as form 3 level at 15 uM in pH 7.0 phosphate buffer measured after 1 min of UV irradiation; format: nucleic-acid assay
[31] = tested on: Nucleic Acid; test: Induction of photochemical DNA cleavage in Escherichia coli pBR322 assessed as form 2 level at 15 uM in pH 8.0 phosphate buffer measured after 6 mins of UV irradiation; format: nucleic-acid assay
[32] = tested on: Nucleic Acid; test: Induction of photochemical DNA cleavage in Escherichia coli pBR322 assessed as form 3 level at 15 uM in pH 7.0 phosphate buffer measured after 8 mins of UV irradiation; format: nucleic-acid assay
[33] = tested on: Nucleic Acid; test: Induction of photochemical DNA cleavage in Escherichia coli pBR322 assessed as form 2 level at 15 uM in pH 8.0 phosphate buffer measured after 0.5 mins of UV irradiation; format: nucleic-acid assay
[34] = tested on: A-375; test: Drug uptake in human A375 cells at 30 uM incubated for 30 mins by fluorescence microscopy; format: ADME, cell-based; details: a-375, 0.5 h
[35] = tested on: Nucleic Acid; test: Induction of photochemical DNA cleavage in Escherichia coli pBR322 assessed as form I level at 15 uM in pH 6.0 phosphate buffer measured after 2 mins of UV irradiation; format: nucleic-acid assay

Activity [1]: Active
Activity [2]: 83.9%
Activity [3]: 22.6%
Activity [4]: 0%
Activity [5]: < 17%
Activity [6]: 41.5%
Activity [7]: 22.2%
Activity [8]: 45.6%
Activity [9]: 26.3%
Activity [10]: 58.6%
Activity [11]: 65.1%
Activity [12]: 17.1%
Activity [13]: Active
Activity [14]: 11.7%
Activity [15]: 52.4%
Activity [16]: 28.1%
Activity [17]: 77.8%
Activity [18]: 40.8%
Activity [19]: 30.2%
Activity [20]: 35.4%
Activity [21]: 35%
Activity [23]: 52.7%
Activity [25]: 0%
Activity [26]: 78.7%
Activity [27]: 42.3%
Activity [28]: 86.4%
Activity [29]: 159%
Activity [30]: 0%
Activity [31]: 59.2%
Activity [32]: 28.1%
Activity [33]: 13.6%
Drug uptake [34]: Active
Activity [35]: 17.3%
SMILES: NCCCC[C@H](N)C(=O)NCCCC[C@H](N)C(=O)Nc1ccc(C#Cc2c(F)c(F)nc(F)c2F)cc1.O=C(O)C(F)(F)F
Activity [22]: tde
Activity [24]: Non-toxic
